Assay results from patent US20070292386A9, “Vaccine formulations for intradermal delivery comprising adjuvants and antigenic agents” (priority 2004, published 2007).
Ends that are not written are not given here.

B1: IL-12: heterodimeric cytokine interleukin-12 (protein, UniProt P29459 23-219; P29460 23-328, looked up)
Interleukin-12 subunit alpha: RNLPVATPDPGMFPCLHHSQNLLRAVSNMLQKARQTLEFYPCTSEEIDHEDITKDKTSTVEACLPLELTKNESCLNSRETSFITNGSCLASRKTSFMMALCLSSIYEDLKMYQVEFKTMNAKLLMDPKRQIFLDQNMLAVIDELMQALNFNSETVPQKSSLEEPDFYKTKIKLCILLHAFRIRAVTIDRVMSYLNAS
Interleukin-12 subunit beta: IWELKKDVYVVELDWYPDAPGEMVVLTCDTPEEDGITWTLDQSSEVLGSGKTLTIQVKEFGDAGQYTCHKGGEVLSHSLLLLHKKEDGIWSTDILKDQKEPKNKTFLRCEAKNYSGRFTCWWLTTISTDLTFSVKSSRGSSDPQGVTCGAATLSAERVRGDNKEYEYSVECQEDSACPAAEESLPIEVMVDAVHKLKYENYTSSFFIRDIIKPDPPKNLQLKPLKNSRQVEVSWEYPDTWSTPHSYFSLTFCVQVQGKSKREKKDRVFTDKTSATVICRKNASISVRAQDRYYSSSWSEWASVPCS
B2: IL-7: cytokine interleukin-7 (protein, UniProt P13232 26-177, looked up)
Interleukin-7: DCDIEGKDGKQYESVLMVSIDQLLDSMKEIGSNCLNNEFNFFKRHICDANKEGMFLFRAARKLRQFLKMNSTGDFDLHLLKVSEGTTILLNCTGQVKGRKPAALGEAQPTKSLEENKSLKEQKKLNDLCFLKRLLQEIKTCWNKILMGTKEH

These molecules were tested on influenza antigen (Influenza APR834). Conditions: adjuvant with Fluzone, intradermal, Balb/c mice, one immunization, sera 21 days, vs Fluzone alone.
Assay type: in vivo
Design: key: greater immune response (as indicated by X) as compared to the inoculums that contained Fluzone alone, or the non-immune inoculums

Which “Increased Immune Response, Fluzone” value does the source give for “N-formyl-NIe Leu-Phe-NIe-Tyr-Lys [Neutrophil Chemo-attractant Peptide]” here?
Its value is “X”.

Which “Increased Immune Response, Fluzone” value does the source give for “VGVAPG [Elastin Repeating Peptide, mammalian peptide adjuvant]” here?
The value was “X”.

How did the “Increased Immune Response, Fluzone” value turn out when “Tyr-Leu-Glu-Pro-Gly-Pro-Val-Thr-Ala [Melanonin Peptide 946]” was run?
Its value is “X”.

Which “Increased Immune Response, Fluzone” value does the source give for IL-6: cytokine interleukin 6 here?
The value was “X”.

For “Interferon-gamma: cytokine, interferon produced by lymphocytes”, which “Increased Immune Response, Fluzone” value is on record?
Its value is “X”.

For B1, which “Increased Immune Response, Fluzone” value is on record?
Its value is “X”.

How did the “Increased Immune Response, Fluzone” value turn out when B2 was run?
The value was “X”.
